Test results from patent US20230096766A1, “AMINO ACID HAVING FUNCTIONAL GROUP CAPABLE OF INTERMOLECULAR HYDROGEN BONDING, PEPTIDE COMPOUND CONTAINING SAME AND METHOD FOR PRODUCTION THEREOF” (Chugai Seiyaku Kabushiki Kaisha, priority 2018, published 2023).
*1 amine or outer side, *2 acyl side, *3 side chain or, on linkers, in order; H or OH if unused. Where a SMILES comes first, the peptide text is derived from it. Bridges are numbered along the chain shown (N, C = ends). [ ]: non-standard residue; d: D form. The star is where a group is joined. ξ: configuration not given here. Phe(3-OMe,4-CONHMs) = COc1cc(C[C@H](N)C(=O)O)ccc1C(=O)NS(C)(=O)=O; NMeHph(3-OMe-4-CONHMe) = CNC(=O)c1ccc(CC[C@H](NC)C(=O)O)cc1OC; hPhe(3-OMe,4-CONHMe) = CNC(=O)c1ccc(CC[C@H](N)C(=O)O)cc1OC; Phe(4-COOH) = N[C@@H](Cc1ccc(C(=O)O)cc1)C(=O)O; NMePhe(3-Cl) = CN[C@@H](Cc1cccc(Cl)c1)C(=O)O; X9 = O=C([C@@H](CN[*:1])COCCO)[*:2]; Propyl(2,2-Me2,3-OH) = CC(C)(CO)C*; Hyp = O=C(O)[C@@H]1C[C@@H](O)CN1; NMeF = CN[C@@H](Cc1ccccc1)C(=O)O; NMeGABA = CN(CCCC(=O)[*:2])[*:1]; NMeI = CC[C@H](C)[C@H](NC)C(=O)O; NMeL = CN[C@@H](CC(C)C)C(=O)O; dNMeL = CN[C@H](CC(C)C)C(=O)O; Butyl(3R-OH) = C[C@@H](O)CC*; Butyl(3S-OH) = C[C@H](O)CC*; NMeV = CN[C@H](C(=O)O)C(C)C; NMeAbu = CC[C@H](NC)C(=O)O; Pip = O=C(O)[C@@H]1CCCCN1; Piperidide = C1CCN(*)CC1; NBuGly = CCCCNCC(=O)O; NPrGly = CCCNCC(=O)O; Propyl(3-OH) = OCCC*; Ethyl(2-OH) = OCC*; ξS = NC(CO)C(=O)O; N(OH)Me = CN(O)*; Sar = CNCC(=O)O; tBu = CC(C)(C)*

experiment: Membrane permeability test of cyclic peptides (Caco-2, modified/improved method of WO 2018/124162); conditions: human, Caco-2, Caco-2 (cm/sec), membrane permeability of cyclic peptides, Caco-2

First: CC(C)C[C@@H]1NC(=O)[C@H](Cc2ccccc2)N(C)C(=O)[C@H](CC(C)C)N(C)C(=O)[C@H](COCCCO)NC(=O)[C@H](CC(C)C)N(C)C(=O)C[C@@H](C(=O)N2CCCCC2)NC(=O)[C@H](CC(C)C)N(C)C(=O)CN(C)C(=O)[C@H]([C@@H](C)O)NC(=O)[C@H](CC(C)C)N(C)C(=O)[C@H](Cc2cccc(Cl)c2)N(C)C1=O [AP97] ([NMeL]S(Propyl(3-OH))[NMeL][NMeF]L[NMePhe(3-Cl)][NMeL]T[Sar][NMeL]D-Piperidide; lactam N-11)
Second: CC(C)C[C@@H]1NC(=O)[C@H](Cc2ccccc2)N(C)C(=O)[C@H](CC(C)C)N(C)C(=O)[C@H](COCC(C)(C)CO)NC(=O)[C@H](CC(C)C)N(C)C(=O)C[C@@H](C(=O)N2CCCCC2)NC(=O)[C@H](CC(C)C)N(C)C(=O)CN(C)C(=O)[C@H]([C@@H](C)O)NC(=O)[C@H](CC(C)C)N(C)C(=O)[C@H](Cc2ccccc2)N(C)C1=O [AP125] ([NMeL]S(Propyl(2,2-Me2,3-OH))[NMeL][NMeF]L[NMeF][NMeL]T[Sar][NMeL]D-Piperidide; lactam N-11)
The Papp of the first is 3.5-fold lower: 0.21 ×10⁻⁶ cm/s for the first, 0.74 ×10⁻⁶ cm/s for the second.

Going from `CC(C)C[C@@H]1NC(=O)[C@H](C(C)C)N(C)C(=O)C[C@@H](C(=O)N2CCCCC2)NC(=O)[C@H](CC(C)C)N(C)C(=O)CN(C)C(=O)[C@H]([C@@H](C)O)NC(=O)[C@H](C(C)C)N(C)C(=O)[C@H](Cc2ccccc2)N(C)C(=O)C(COCC[C@H](C)O)NC(=O)[C@H](Cc2ccccc2)N(C)C(=O)[C@H](CC(C)C)N(C)C1=O` (stereo partly drawn) [AP104] ([NMeV]L[NMeL][NMeF][ξS](Butyl(3S-OH))[NMeF][NMeV]T[Sar][NMeL]D-Piperidide; lactam N-11) to `CC(C)C[C@@H]1NC(=O)[C@H](C(C)C)N(C)C(=O)C[C@@H](C(=O)N2CCCCC2)NC(=O)[C@H](CC(C)C)N(C)C(=O)CN(C)C(=O)[C@H]([C@@H](C)O)NC(=O)[C@H](C(C)C)N(C)C(=O)[C@H](Cc2ccccc2)N(C)C(=O)[C@H](COCC[C@@H](C)O)NC(=O)[C@H](Cc2ccccc2)N(C)C(=O)[C@H](CC(C)C)N(C)C1=O` [AP113] ([NMeV]L[NMeL][NMeF]S(Butyl(3R-OH))[NMeF][NMeV]T[Sar][NMeL]D-Piperidide; lactam N-11), the Papp falls from 2.9 ×10⁻⁶ cm/s to 1.7 ×10⁻⁶ cm/s (1.7-fold).

`CCCCN1CC(=O)N(C)[C@@H](CC(C)C)C(=O)N[C@H](C(=O)N2CCCCC2)CC(=O)N(C)[C@@H](C(C)C)C(=O)N[C@@H](CC(C)C)C(=O)N(C)[C@@H](CC(C)C)C(=O)N(C)[C@@H](Cc2ccccc2)C(=O)N[C@@H](COCC[C@H](C)O)C(=O)N(C)[C@@H](Cc2ccccc2)C(=O)N(C)[C@@H](C(C)C)C(=O)N[C@@H]([C@@H](C)O)C1=O` [AP107] ([NMeV]L[NMeL][NMeF]S(Butyl(3S-OH))[NMeF][NMeV]T[NBuGly][NMeL]D-Piperidide; lactam N-11) and `CCCCN1CC(=O)N(C)[C@@H](CC(C)C)C(=O)N[C@H](C(=O)N2CCCCC2)CC(=O)N(C)[C@@H](C(C)C)C(=O)N[C@@H](CC(C)C)C(=O)N(C)[C@@H](CC(C)C)C(=O)N(C)[C@@H](Cc2ccccc2)C(=O)N[C@@H](COCC[C@@H](C)O)C(=O)N(C)[C@@H](Cc2ccccc2)C(=O)N(C)[C@@H](C(C)C)C(=O)N[C@@H]([C@@H](C)O)C1=O` [AP116] ([NMeV]L[NMeL][NMeF]S(Butyl(3R-OH))[NMeF][NMeV]T[NBuGly][NMeL]D-Piperidide; lactam N-11) are within 1.5-fold of each other in Papp: 0.93 ×10⁻⁶ cm/s for the first, 0.89 ×10⁻⁶ cm/s for the second.

Compared with `CC(C)C[C@@H]1NC(=O)[C@H](Cc2ccccc2)N(C)C(=O)[C@H](Cc2ccccc2)N(C)C(=O)[C@H](COCC(C)(C)CO)NC(=O)[C@H](CC(C)C)N(C)C(=O)CCCN(C)C(=O)C[C@@H](C(=O)N2CCCCC2)NC(=O)[C@H](CC(C)C)N(C)C(=O)[C@H](CC(C)C)N(C)C(=O)[C@H]([C@@H](C)O)NC(=O)[C@H](CC(C)C)N(C)C1=O` [AP119] ([NMeGABA][NMeL]S(Propyl(2,2-Me2,3-OH))[NMeF][NMeF]L[NMeL]T[NMeL][NMeL]D-Piperidide; lactam N-11), `CCCN1CC(=O)N(C)[C@@H](CC(C)C)C(=O)N[C@H](C(=O)N2CCCCC2)CC(=O)N(C)[C@@H](CC(C)C)C(=O)N[C@@H](Cc2ccccc2)C(=O)N(C)[C@@H](CC(C)C)C(=O)N(C)[C@@H](CC(C)C)C(=O)NC[C@@H](COCCO)C(=O)N(C)[C@@H](Cc2ccccc2)C(=O)N(C)[C@@H](CC(C)C)C(=O)N[C@@H]([C@@H](C)O)C1=O` [AP132] ([NMeL]F[NMeL][NMeL][X9][NMeF][NMeL]T[NPrGly][NMeL]D-Piperidide; lactam N-11) is 3.8-fold higher in Papp: 0.34 ×10⁻⁶ cm/s for the first, 1.3 ×10⁻⁶ cm/s for the second.

`CC[C@H](C)[C@H]1C(=O)N[C@@H]([C@@H](C)O)C(=O)N(C)CC(=O)N(C)[C@@H](CC)C(=O)N[C@H](C(=O)N2CCCCC2)CC(=O)N(C)[C@@H](CC(C)C)C(=O)N[C@@H](Cc2ccc(C(=O)NS(C)(=O)=O)c(OC)c2)C(=O)N(C)[C@@H](CC(C)C)C(=O)N(C)[C@@H](Cc2ccccc2)C(=O)N[C@@H](CC(C)C)C(=O)N(C)[C@@H](CC(C)C)C(=O)N1C` [AP139] ([NMeL][Phe(3-OMe,4-CONHMs)][NMeL][NMeF]L[NMeL][NMeI]T[Sar][NMeAbu]D-Piperidide; lactam N-11) and `CC[C@H](C)[C@H]1C(=O)N[C@@H]([C@@H](C)O)C(=O)N(C)CC(=O)N(C)[C@@H](CC)C(=O)N[C@H](C(=O)N2CCCCC2)CC(=O)N(C)[C@@H](CC(C)C)C(=O)N[C@@H](Cc2ccc(C(=O)N(C)O)cc2)C(=O)N(C)[C@@H](CC(C)C)C(=O)N(C)[C@@H](Cc2ccccc2)C(=O)N[C@@H](CC(C)C)C(=O)N(C)[C@@H](CC(C)C)C(=O)N1C` [AP252] ([NMeL][Phe(4-COOH)](N(OH)Me)[NMeL][NMeF]L[NMeL][NMeI]T[Sar][NMeAbu]D-Piperidide; lactam N-11) cannot be ordered by Papp: less than 0.25 ×10⁻⁶ cm/s for the first, 0.13 ×10⁻⁶ cm/s for the second.

Compared with `CNC(=O)c1ccc(CC[C@H]2C(=O)N[C@@H](CC(C)C)C(=O)N(C)[C@@H](CC(C)C)C(=O)N[C@@H]([C@@H](C)O)C(=O)N(C)CC(=O)N(C)[C@@H](CC(C)C)C(=O)N[C@@H](CC(C)C)C(=O)N(C)[C@@H](Cc3ccccc3)C(=O)N(C)[C@@H](CC(C)C)C(=O)N[C@H](C(=O)N3CCCCC3)CC(=O)N[C@H](C(C)C)C(=O)N2C)cc1OC` [AP224] ([dV][NMeHph(3-OMe-4-CONHMe)]L[NMeL]T[Sar][NMeL]L[NMeF][NMeL]D-Piperidide; lactam N-11), `CC(C)C[C@@H]1NC(=O)[C@@H]2CCCCN2C(=O)[C@H](Cc2ccccc2)NC(=O)[C@H](C(C)C)N(C)C(=O)[C@H](CC(C)C)N(C)C(=O)[C@H]([C@@H](C)O)NC(=O)[C@H](CC(C)C)N(C)C(=O)[C@@H]2C[C@@H](OCCO)CN2C(=O)[C@H](CC(C)C)N(C)C(=O)[C@@H](CC(C)C)N(C)C(=O)C[C@@H](C(=O)N2CCCCC2)NC1=O` [AP236] ([dNMeL][NMeL][Hyp](Ethyl(2-OH))[NMeL]T[NMeL][NMeV]F[Pip]LD-Piperidide; lactam N-11) is 3.5-fold higher in Papp: 1.1 ×10⁻⁶ cm/s for the first, 3.8 ×10⁻⁶ cm/s for the second.

same assay, conditions: human, Caco-2, Caco-2 (cm/sec), membrane permeability, Caco-2

Work on `CC[C@H](C)[C@H]1C(=O)N[C@@H](CCc2ccc(C(=O)NC)c(OC)c2)C(=O)N[C@H](C(=O)N2CCCCC2)CC(=O)N(C)[C@H](CC(C)C)C(=O)N[C@@H](COC(C)(C)C)C(=O)N(C)[C@@H](CC(C)C)C(=O)N[C@@H]([C@@H](C)O)C(=O)N(C)[C@@H](Cc2ccccc2)C(=O)N(C)[C@@H](CC(C)C)C(=O)NCC(=O)N1C` [AP264] ([dNMeL]S(tBu)[NMeL]T[NMeF][NMeL]G[NMeI][hPhe(3-OMe,4-CONHMe)]D-Piperidide; lactam N-10) yielded a Papp of 0.17 ×10⁻⁶ cm/s.
